Each molecule was assayed against Hepatitis C virus NS3 helicase (assay: IC50 of HCV NS3 unwinding blockers – biochemical, fluorescence, dose response, late-stage follow-up (AID 2474)). Conditions: recombinant NS3 helicase, fluorescence unwinding assay; call rule not given here.

IC50, active:
Cc1cc(N2C(=O)C(O)=C(C(=O)c3ccc(C)o3)C2c2ccc(OCc3ccccc3)cc2)no1 (configuration not stated) 1470 nM
CCCCCOc1ccc(C2C(C(=O)c3ccc(C)o3)=C(O)C(=O)N2c2cc(C)on2)cc1 (configuration not stated) 1810 nM
Cc1ccc(C(=O)C2=C(O)C(=O)N(Cc3ccco3)C2c2cccc(Cl)c2)o1 (configuration not stated) 6590 nM
CCOc1cccc(C2C(C(=O)c3ccc(C)o3)=C(O)C(=O)N2Cc2ccccc2)c1 (configuration not stated) 5290 nM
COc1cccc(-n2c(SCc3cc(=O)oc4cc(O)c(O)cc34)nc3ccccc3c2=O)c1 2880 nM
COc1ccc(C=NNC(=O)c2cc(O)c(O)c(O)c2)cc1COc1ccc(C(=O)OCC(C)C)cc1 9370 nM
COc1cc(C2C(C(=O)c3ccc(C)o3)=C(O)C(=O)N2c2cc(C)on2)ccc1OCc1ccccc1 (configuration not stated) 1630 nM
